The conditions of series [1]: surfactant, cited from earlier work.
Series [2] can be described thus: Oil carrying capacity (oil fraction at lowest TSI). It counts as physicochemical. To be noted: decane / MES-NaCl buffer, 0.1% (v/v) surfactant, 37° C. From the text:
The proposed system of determining the oil fraction at which optimum emulsion stability occurs, the ‘oil carrying capacity’ (OCC) of the surfactant, is intended as a tool for surfactant selection in a system where the desired oil fraction is known. Equally, it may be used to optimise oil fraction ‘carried’ in the emulsion when a particular surfactant is required. It is a practical tool to be used in conjunction with other metrics, such as HLB, but its simplicity and broad application make it versatile and easy to implement to formulation practice.
The oil fraction at the lowest TSI after 15 minutes was identified as the ‘oil carrying capacity’ (OCC) of that surfactant. Further oil/buffer/surfactant mixtures were prepared at 5% oil fractions either side of this minimum (i.e. an initial minimum of 70% oil fraction would be tested then at 65% and 75% oil fraction).

Series [3] has as its system h-tert human mesenchymal stem cells. Kind of series: Cyto-compatibility of scaffolds (CCK-8, contact and leachable assay). To be noted: acute (24 h) and chronic (120 h) exposure; surfactant at 0.1% v/v in media. It counts as cell-based. How it is done:
Cylindrical samples were cut with an 8 mm biopsy punch (n=3) were cut from two scaffolds. […] At 24 h (acute response time) and 120 h (chronic response time), 300 μl DMEM/CCK-8 (10:1) was added and incubated for 4 hours at 37° C. before reading absorbance at 450 nm. Two scaffolds of the same composition (D3, D4) from different manufacturing batches (0.1% Tx-165 surfactant, 90% porous, 2:1 fibrin: PVA, 2% fibrinogen) were tested with triplicate samples from each. […] This material is known to be non-cytotoxic, verified with both in vitro and in vivo assays.

Series [4] can be described thus: Turbiscan emulsion stability (TSI) of decane/buffer emulsions stabilised with surfactant. Particulars: 0.1% (v/v) surfactant, 15 mins after mixing. It counts as physicochemical. The text has this: Stability was herein reported using the Turbiscan™ stability index (TSI). This non-destructive, non-invasive technique gives the stability of the sample over its whole selected height as a function of transmitted and backscattered light compared to the same measurements at the previous timepoint. Kinetic stability is built up over sequential scans. The pattern of change across the height of the sample gives a ‘fingerprint’ characteristic of the mode of destabilisation. TSI is defined in equation 1: […]
where scani is the backscattering value at a given timepoint, scani-1 is the backscattering value from the previous timepoint, h is the height of the scan and H is the total sample height from the first to the last scan. TSI is the sum of the differences between sequential scans and thus represents the stability of the sample over a defined timeframe. TSI reduces with increasing stability.
Stock solutions of surfactants were prepared in 7 ml polystyrene bijou by dispersing 0.1% (v/v) surfactant in decane so that surfactant scaled with oil fraction. These stock solutions were shaken briefly to disperse the surfactants before adding the deionised water. 4 ml mixtures were prepared in triplicate for each surfactant at various oil fractions (50, 60, 70, 80, 90% v/v oil-surfactant). Each sample was vortexed for 1 minute using WhirliMixer™ (Fisherbrand) to homogenise immediately prior to stability measurements.
3 ml of the sample was pipetted into a borosilicate glass cuvette, taking care to maintain a clean meniscus, and analysed using Turbiscan™ LAB Analyser (Formulation, Toulouse, France) scanning every 30 seconds for a total of 15 minutes.
Turbiscan stability index (TSI) was plotted for each surfactant as a function of oil fraction in the emulsion preparation, HLB, or time. Lower TSI indicates less change in the transmitted light, or less change in particle size and position.
Stability was measured using the Turbiscan™ static multiple light scattering analyser and expressed using the Turbiscan stability index (TSI) which reflects the change in transmitted and backscattered light across the height of a sample over a period of time. A higher value of TSI reflects poorer stability; a lower value reflects greater stability. However, because TSI measures rate of change, emulsions which break instantly after mixing ceases can display low TSI values.

Experiment in series [5]: as above
It counts as physicochemical. Particulars: 0.1% (v/v) surfactant, 15 mins after mixing. The source holds these as a separate data set.

Series [6] can be described thus: Hydrophilic-lipophilic balance (HLB). It counts as physicochemical. To be noted: experimentally determined required HLB range. From the text: As understood herein, the term “hydrophilic-lipophilic balance (HLB)” describes the ratio between the size of the hydrophilic and lipophilic regions of a surfactant molecule. The empirically derived formula: […]
Was introduced for alkyl ethoxylates (Griffin W. C. J. Soc. Cosmet. Chem., 5 (1954), p. 249.) The HLB of more complex surfactant structures is found using a systematic approach based on chemical group assignments (Davies J. T., Rideal E. K. Interfacial Phenomena Academic Press, New York (1961), pp. 371-378):
HLB=7+Σ(Hydrophile group number)−Σ(lipophile group number)
A water-in-oil emulsion (w/o) has […]. An oil-in-water (o/w) emulsion has […]. The propensity for formation of a w/o or o/w emulsion is determined by the balance of hydrophobicity and hydrophilicity of the solutions in the mixture. This may be determined using the HLB scale. Oleic phase reagents are assigned an HLB number, determined experimentally, that allows for selection of an appropriate surfactant to cause emulsification with the aqueous phase. […] HLB as understood herein is a semi-quantitative measure of the relative molecular weights of the hydrophilic and lipophilic regions of a surfactant molecule assigned on a scale from 0.5 (extremely lipophilic) to 19.5 (extremely hydrophilic).

Where two headings read alike, the source gives them in different places.

For “Polyethylene glycol 4-tert-octylphenyl ether [Triton X-100 reduced]”, the HLB in series [1] is listed as 9.8.

Take “Polyethylene glycol tert-octylphenyl ether [Triton X-114]”: the “oil fraction at maximum stability (oil carrying capacity)” value (from here on “oil fraction at maximum stability”) in series [2] was 70%. Also, in series [1], the HLB is reported as 12.3.

On to Octylphenol ethoxylate [Triton X-102], for which, in series [2], the “oil fraction at maximum stability” value is 70%.

With Octylphenol ethoxylate [Triton X-165], the cytotoxicity result in series [3] is listed as “cytotoxic in itself”.

As for C11-15 pareth-15 [Tergitol 15-S-15], the HLB in series [1] was 15.4.

As for “Polyethylene glycol trimethylnonyl ether [Tergitol TMN-10]”, in series [1], the HLB is 14.4.

In the case of “Ethylene oxide-propylene oxide copolymer mono(2-ethylhexyl) ether [Ecosurf EH-9]”, the HLB in series [1] is 12.5.

For “Polyethylene glycol tert- octylphenyl ether [Triton X-100]”, the “Turbiscan stability index (TSI)” value in series [4] (70% v/v decane, mixing speed 1000 rpm) is 3.189; in series [4] (70% v/v decane, mixing speed 2000 rpm) it was 2.758; in series [4] (70% v/v decane, mixing speed 3000 rpm) it was 8.763; in series [4] (70% v/v decane, mixing speed 4000 rpm) it was 3.637; in series [4] (70% v/v decane, mixing speed 5000 rpm), 2.705; in series [4] (80% v/v decane, mixing speed 1000 rpm), 2.483. Further, the “Turbiscan stability index (TSI)” value was 2.225 in series [4] (80% v/v decane, mixing speed 2000 rpm); 2.493 in series [4] (80% v/v decane, mixing speed 3000 rpm); 5.128 in series [4] (80% v/v decane, mixing speed 5000 rpm); 3.571 in series [5] (75% v/v decane, mixing speed 1000 rpm); 2.601 in series [5] (75% v/v decane, mixing speed 2000 rpm); 2.723 in series [5] (75% v/v decane, mixing speed 3000 rpm). In addition, the “Turbiscan stability index (TSI)” value was determined as 3.213 in series [5] (75% v/v decane, mixing speed 4000 rpm); 2.398 in series [5] (75% v/v decane, mixing speed 5000 rpm); 9.886 in series [5] (80% v/v decane, mixing speed 4000 rpm). Moreover, the “oil fraction at maximum stability” value in series [2] came out at 70%. In addition, the HLB in series [1] was 13.4.

Take Nonylphenol ethoxylate [Tergitol NP-10]: the HLB in series [1] is recorded as 13.2.

Turning to `CCCCCCCCCC` [decane], in series [6], the “required HLB of the decane oil phase” value was 10-13.

Take “Octylphenol ethoxylate [Triton N-101 reduced]”: the HLB in series [1] is reported as 14.4.

As to “Polyethylene glycol 4-tert- octylphenyl ether [Triton X-45]”, the HLB in series [1] is reported as 9.8.

Consider “Polyethylene glycol tert-octylphenyl ether [Triton X-114 reduced]”, for which the HLB in series [1] is reported as 13.4.

Take “Polyethylene glycol trimethylnonyl ether [Tergitol TMN-6]”: the HLB in series [1] is listed as 13.1.

For C11-15 pareth-9 [Tergitol 15-S-9], the HLB in series [1] is 13.3; in series [1] (listed as Tergitol T-S-9), approximately 13.

Consider C11-15 pareth-7 [Tergitol 15-S-7], for which the HLB in series [1] was 12.1.

As for “Polyoxyethylene (40) isooctylphenyl ether [Triton X-405]”, the “oil fraction at maximum stability” value in series [2] came to 70%. In addition, in series [1], the HLB is 17.6.

The values are drawn from US20230390463A1, “TISSUE SCAFFOLDS” (JD BIOMEDICAL SOLUTIONS LTD., priority 2020, published 2023).
